Experimental data reported in article PMC7382241, “Genomic discovery of an evolutionarily programmed modality for small-molecule targeting of an intractable protein surface” (Proceedings of the National Academy of Sciences of the …, 2020).

Target: T1, FKBP12 (Homo sapiens, UniProt P62942)
T1 construct: gene FKBP1A; AVI-tagged FKBP12, E. coli BL21(DE3)pLysS, immobilized on NTA sensor chip
Format: binding
Conditions: 25 °C; binary complex

T1 sequence (P62942 2-108): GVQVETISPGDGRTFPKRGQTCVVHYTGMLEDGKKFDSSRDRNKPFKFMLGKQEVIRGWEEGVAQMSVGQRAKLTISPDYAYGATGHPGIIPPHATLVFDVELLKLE

C=CC[C@@H]1/C=C(\C)C[C@H](C)C[C@H](OC)[C@H]2O[C@@](O)(C(=O)C(=O)N3CCCC[C@H]3C(=O)O[C@H](/C(C)=C/[C@@H]3CC[C@@H](O)[C@H](OC)C3)[C@H](C)[C@@H](O)CC1=O)[C@H](C)C[C@@H]2OC [FK506]
KD: KD measurements by SPR for WDB001, WDB002, WDB003, WDB011, rapamycin, and FK506
